Reference: patent publication US20250073208A1, “IL-6 AND/OR IL-1BETA INHIBITOR” (AGC INC., priority 2022, published 2025)

Columns and labels:
[1] = test system: IL-6 mRNA; assay: Quantitative RT-PCR analysis of IL-6 mRNA in whole lung of monocrotaline-induced pulmonary hypertension rats; type: in vivo, rat (male Sprague Dawley); conditions: 2 mg/kg/day, 3 weeks, FIG. 7 left
[2] = test system: rats with monocrotaline-induced pulmonary hypertension; assay: Monocrotaline (MCT)-induced pulmonary hypertension rat model: haemodynamics and right ventricular hypertrophy; type: in vivo; conditions: 3 weeks
Protocol: According to the method described in Abe K, Circ Res, 94: 385-393, 2004, a monocrotaline (MCT)-induced pulmonary hypertension rat model was prepared. Monocrotaline (manufactured by Sigma Ltd. Aldrich) was subcutaneously injected once at a dose of 60 mg/kg to 5- to 6-week-old (body weight 150-200 g) male Sprague Dawley rats (SD rat). The compound of the present invention (KAG-308) was orally administered using a gavage needle at a dose of 1 mg/kg (2 mg/kg/day) twice daily from the day of subcutaneous injection of monocrotaline until the day before measurement (“MCT+KAG-308” in FIG. 1). The same amount of solvent (water for injection) was administered for the same period to the pulmonary hypertension rat model not treated with KAG-308 (“MCT” in FIG. 1). The normal control group, which was not administered monocrotaline and KAG-308, was of the same age (“Normal” in FIG. 1). Three weeks after monocrotaline injection, right ventricular systolic pressure, systemic arterial pressure, heart rate number, and right-to-left ventricular weight ratio (right ventricular hypertrophy) were measured. Under isoflurane inhalation anesthesia, right ventricular systolic pressure was measured by the right heart catheterization method. Using a conductance catheter, systemic arterial pressure and heart rate were measured from the carotid artery. After the measurement, the rats were euthanized with a lethal dose of intravenous pentobarbital, and the hearts were excised. The weight of the left ventricle (LV) including the ventricular septum (Sep) relative to the right ventricle (RV) was measured, and the ratio was used as an index of right ventricular hypertrophy.

[3] = test system: IL-1β mRNA; assay: Quantitative RT-PCR analysis of IL-1β mRNA in whole lung of monocrotaline-induced pulmonary hypertension rats; type: in vivo, rat (male Sprague Dawley); conditions: 2 mg/kg/day, 3 weeks, FIG. 7 right, result in words
[4] = test system: rats with monocrotaline-induced pulmonary hypertension; assay: Pulmonary histopathological analysis in the monocrotaline-induced pulmonary hypertension rat model; type: in vivo, rat (male Sprague Dawley); conditions: 2 mg/kg/day, 3 weeks
Protocol: According to the method described in Abe K, Circ Res, 94: 385-393, 2004, a monocrotaline (MCT)-induced pulmonary hypertension rat model was prepared. Monocrotaline (manufactured by Sigma Ltd. Aldrich) was subcutaneously injected once at a dose of 60 mg/kg to 5- to 6-week-old (body weight 150-200 g) male Sprague Dawley rats (SD rat). The compound of the present invention (KAG-308) was orally administered using a gavage needle at a dose of 1 mg/kg (2 mg/kg/day) twice daily from the day of subcutaneous injection of monocrotaline until the day before measurement (“MCT+KAG-308” in FIG. 1). The same amount of solvent (water for injection) was administered for the same period to the pulmonary hypertension rat model not treated with KAG-308 (“MCT” in FIG. 1). The normal control group, which was not administered monocrotaline and KAG-308, was of the same age (“Normal” in FIG. 1). Three weeks after monocrotaline injection, right ventricular systolic pressure, systemic arterial pressure, heart rate number, and right-to-left ventricular weight ratio (right ventricular hypertrophy) were measured. Under isoflurane inhalation anesthesia, right ventricular systolic pressure was measured by the right heart catheterization method. Using a conductance catheter, systemic arterial pressure and heart rate were measured from the carotid artery. After the measurement, the rats were euthanized with a lethal dose of intravenous pentobarbital, and the hearts were excised. The weight of the left ventricle (LV) including the ventricular septum (Sep) relative to the right ventricle (RV) was measured, and the ratio was used as an index of right ventricular hypertrophy. […]
Pulmonary arteries with an outer diameter of 50 to 100 μm were analyzed, and the mean medial wall thickness was measured in a blind manner (mean medial wall thickness=(outer diameter−inner diameter)/outer diameter).
Muscularization of small pulmonary arteries with an outer diameter of 50 μm or less was analyzed by immunostaining with anti-α-SMA (smooth muscular actin) antibody. According to the percentage of smooth muscle in the total circumference of the small pulmonary artery, they were defined as Non muscular (<25%), Partially muscular (25-75%), and Totally muscular (>75%), and at least 70 small pulmonary arteries of each specimen were evaluated in a blinded method.
Macrophages were measured by immunostaining using anti-CD68 antibody. The device used was a laser scanning microscope FV1200 IX83 (OLYMPUS), and observation was performed at a magnification of 400×, and CD68-positive cells were counted in 15 randomly selected fields mainly of small blood vessels.

## Cc1cccc([C@@H](C)[C@H](O)/C=C/[C@@H]2[C@@H]3[C@H](C[C@H]2O)O/C(=C\CCCc2nnn[nH]2)C3(F)F)c1 [KAG-308, 4-[(Z)-(1S,5R,6R,7R)-6-[(1E,3R,4R)-3-hydroxy-4-(m-tolyl)-1-pentenyl]-7-hydroxy-2-oxa-4,4-difluoro-bicyclo[3.3.0]octan-3-ylidene]-1-(tetrazol-5-yl)butane]
[1]
  suppression of the increase in mRNA expression level of IL-6: 89%
[1]; result in words
  increase in mRNA expression level of IL-6: significantly suppressed
[2]; 1 mg/kg orally twice daily (2 mg/kg/day), FIG. 2 left
  increase in right ventricular systolic pressure (RVSP): significantly suppressed
[2]; 1 mg/kg orally twice daily (2 mg/kg/day), FIG. 2 right
  increase in weight ratio RV/LV+Sep (right ventricular hypertrophy): significantly suppressed
[2]; 2 mg/kg/day orally, FIG. 3 left
  left ventricular systolic pressure: without affecting
[2]; 2 mg/kg/day orally, FIG. 3 right
  heart rate: without affecting
[3]
  increase in mRNA expression level of IL-1β: significantly suppressed
[4]; lung, anti-CD68 immunostaining, 15 fields at 400×, FIG. 6
  increase in infiltration of inflammatory CD68-positive macrophages: significantly suppressed
[4]; pulmonary arteries of outer diameter 50 to 100 μm, EVG staining, FIG. 4
  increase in average medial wall thickness of pulmonary artery: significantly suppressed
[4]; small pulmonary arteries of outer diameter 50 μm or less, anti-α-SMA immunostaining, non muscular <25%, FIG. 5
  non-muscular percentage of small pulmonary arteries: increased
[4]; small pulmonary arteries of outer diameter 50 μm or less, anti-α-SMA immunostaining, totally muscular >75%, FIG. 5
  totally muscular percentage of small pulmonary arteries: decreased
